From patent US20260125378A2, “Heterocyclic Compounds” (BeOne Medicines I GmbH, priority 2023, published 2026)

Columns and labels:
[1] = biological target: T1, Full length DGKζ (in-house protein M1-V929) (Homo sapiens, UniProt Q13574); assay: Biochemical DGK IC50 assay (ADP-Glo, lipid micelle substrate), DGKζ; details: 1 hour preincubation, 1 hour reaction, room temperature
T1 construct: His (N); TEV site (N); made in house; host or cells: Sf9 insect cells (Bac-to-Bac baculovirus)
Method: (§1) Enzymatic reactions of DGKζ, DGKα and DGKδ were performed using ADP-Glo assay with lipid micelle substrate. […] Full length DGKα (D21-10BG, SignalChem) and full length DGKδ (D23-10G, SignalChem) were purchased. Lipid micelle was prepared by dissolving DAG (Sigma, 317505-10 MG) and PS (Sigma, P7769-100 MG) with chloroform which was furtherly removed by rotary evaporation. The obtained residue was resuspended in buffer containing 25 mM HEPES pH 7.0, 0.5 mM EDTA and 160 mM Octyl β-D glucopyranoside by vigorous mixing and ultrasonic (IID, Scientz).
(§2) The inhibition activities testing for the compound disclosed herein were carried out at room temperature in assay buffer containing 50 mM HEPES, 10 mM MgCl2, 0.01% BSA, 0.1 mM Na3VO4, 0.005% Tween-20 and 0.01 mM CaCl2). Compounds in DMSO were dispensed into wells of a black 384 well plate (Corning 4514) using D300e digital dispenser (Tecan). […] 3 μL 2× enzyme solution was added to wells. […] After 1 hour reaction, 5 μL ADP-Glo reagent (Promga V9101) was added and incubated for 40 minutes. 10 μL Kinase Detection reagent was added and incubated for 30 minutes. Luminescence was measured on a microplate reader (PHERAstar FSX, BMG labtech). The IC50S are calculated based on inhibition of enzyme activity in the presence of increasing concentrations of compounds.
Human His-TEV-DGK-zeta-pFastBac1 and human baculovirus samples was generated using the Bac- to -Bac baculovirus expression system (Invitrogen) according to the manufacturer's protocol. The DNA used for expression of DGK-zeta, have SEQ ID Nos: 1. Baculovirus amplification was achieved using infected SF9 cells at 1:2000 virus/cells ratios, and grown for 96 hours at 27° C. post-transfected.
The expression scaled up for each protein was carried out in the […] from CORNING. 4 L of 3×10^6 cells/mL Sf9 cells (Expression System, Invitrogen) grown in SF900™ II SFM insect medium (Expression System) was infected with virus stock at 1:200 virus/cells ratio, and grown for 48 hours at 27° C. post-transfection. The infected cell culture was harvested by centrifugation at 6000 rpm for 15 min 4° C. in a SORVALL LYNX6000 centrifuge. The cell pellets were stored at −80° C.
Full length human DGKζ produced as described above, was purified from Sf9 baculovirus-infected insect cell paste. The cells were lysed using sonication method, and the lysates were clarified by centrifugation.

[2] = biological target: T2, Full length DGKα (D21-10BG, SignalChem) (Homo sapiens, UniProt P23743); assay: Biochemical DGK IC50 assay (ADP-Glo, lipid micelle substrate), DGKα; details: 1 hour preincubation, 1 hour reaction, room temperature
T2 construct: Full length DGKα (D21-10BG, SignalChem); purchased SignalChem D21-10BG
Method: as §1, §2

T2 sequence (P23743 whole entry): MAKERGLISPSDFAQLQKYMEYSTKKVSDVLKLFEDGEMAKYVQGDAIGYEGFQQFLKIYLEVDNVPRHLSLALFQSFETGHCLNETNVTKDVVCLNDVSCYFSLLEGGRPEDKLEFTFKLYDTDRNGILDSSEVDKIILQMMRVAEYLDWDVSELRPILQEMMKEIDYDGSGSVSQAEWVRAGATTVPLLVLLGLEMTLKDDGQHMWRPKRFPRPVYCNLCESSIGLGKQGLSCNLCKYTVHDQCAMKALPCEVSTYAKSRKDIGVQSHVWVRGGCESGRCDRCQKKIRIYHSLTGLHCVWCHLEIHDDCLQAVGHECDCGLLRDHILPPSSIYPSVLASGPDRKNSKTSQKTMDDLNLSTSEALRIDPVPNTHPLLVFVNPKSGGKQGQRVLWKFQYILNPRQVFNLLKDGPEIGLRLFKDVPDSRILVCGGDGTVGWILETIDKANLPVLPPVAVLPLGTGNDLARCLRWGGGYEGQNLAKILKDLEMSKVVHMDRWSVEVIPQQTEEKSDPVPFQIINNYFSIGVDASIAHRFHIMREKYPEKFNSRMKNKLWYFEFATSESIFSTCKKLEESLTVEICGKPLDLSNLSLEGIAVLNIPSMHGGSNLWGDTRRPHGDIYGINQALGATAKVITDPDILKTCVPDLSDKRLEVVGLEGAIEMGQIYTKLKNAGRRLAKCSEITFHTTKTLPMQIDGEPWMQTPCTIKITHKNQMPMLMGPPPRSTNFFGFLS
T1 sequence (Q13574 1-929 isoform Q13574-4): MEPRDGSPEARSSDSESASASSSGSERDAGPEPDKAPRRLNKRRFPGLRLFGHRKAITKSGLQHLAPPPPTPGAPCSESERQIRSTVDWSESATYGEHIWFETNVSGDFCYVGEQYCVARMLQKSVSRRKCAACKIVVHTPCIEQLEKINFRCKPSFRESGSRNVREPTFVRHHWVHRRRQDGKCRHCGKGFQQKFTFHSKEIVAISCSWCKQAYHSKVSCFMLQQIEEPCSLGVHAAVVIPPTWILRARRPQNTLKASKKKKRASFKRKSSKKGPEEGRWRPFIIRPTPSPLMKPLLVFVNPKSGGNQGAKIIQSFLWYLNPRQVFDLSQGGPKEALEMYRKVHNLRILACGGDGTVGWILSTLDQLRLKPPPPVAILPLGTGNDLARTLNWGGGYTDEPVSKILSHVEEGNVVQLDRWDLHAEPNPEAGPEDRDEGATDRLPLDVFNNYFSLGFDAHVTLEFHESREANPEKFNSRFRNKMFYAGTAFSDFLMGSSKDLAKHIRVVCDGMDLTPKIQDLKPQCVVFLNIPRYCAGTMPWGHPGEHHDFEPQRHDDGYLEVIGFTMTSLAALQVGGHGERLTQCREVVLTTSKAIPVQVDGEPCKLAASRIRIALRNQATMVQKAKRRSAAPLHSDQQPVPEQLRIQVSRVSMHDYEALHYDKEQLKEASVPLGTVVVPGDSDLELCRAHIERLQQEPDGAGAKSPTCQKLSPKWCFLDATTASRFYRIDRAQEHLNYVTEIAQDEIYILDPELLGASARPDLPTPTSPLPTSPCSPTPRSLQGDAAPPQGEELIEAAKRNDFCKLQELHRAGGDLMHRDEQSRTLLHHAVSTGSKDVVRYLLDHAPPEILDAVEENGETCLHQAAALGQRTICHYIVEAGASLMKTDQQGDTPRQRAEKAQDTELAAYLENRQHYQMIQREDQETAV

Structure (SMILES) | IC50 [1] [nM] | IC50 [2] [nM]
CC[C@H]1CN(C(C)c2ccc(F)cc2C(F)(F)F)[C@H](CC)CN1c1nc(=O)n(C)c2c1nc(CC#N)n2C (single isomer, unassigned) [Compound A34a] | 392 | > 10000
CC[C@H]1CN(C(C)c2ccc(F)cc2C(F)(F)F)[C@H](CC)CN1c1nc(=O)n(C)c2c1nc(CC#N)n2C (single isomer, unassigned) [Compound A34b] | 9 | > 10000
CCn1c(CC#N)nc2c(N3C[C@@H](C)N(C(C)c4ccc(F)cc4C(F)(F)F)C[C@@H]3C)nc(=O)n(C)c21 (single isomer, unassigned) [Compound A35a] | 2760 | > 150000
CCn1c(CC#N)nc2c(N3C[C@@H](C)N(C(C)c4ccc(F)cc4C(F)(F)F)C[C@@H]3C)nc(=O)n(C)c21 (single isomer, unassigned) [Compound A35b] | 24 | > 150000
CCn1c(CC#N)nc2c(N3C[C@@H](C)N(C(C)c4cccc(C(F)(F)F)c4)C[C@@H]3C)nc(=O)n(C)c21 (single isomer, unassigned) [Compound A42a] | 24 | 78700
CCn1c(CC#N)nc2c(N3C[C@@H](C)N(C(C)c4cccc(C(F)(F)F)c4)C[C@@H]3C)nc(=O)n(C)c21 (single isomer, unassigned) [Compound A42b] | 285 | 118000
Cc1cnc2ccc(C(C)N3C[C@H](C)N(c4nc(=O)n(C)c5c4nc(CC#N)n5C)C[C@H]3C)cc2n1 (single isomer, unassigned) [Compound A49b] | 400 | > 150000
CC[C@@H]1CN(c2nc(=O)n(C)c3c2nc(CC#N)n3C)[C@@H](C)CN1C(C)c1ccc2ncc(C)nc2c1 (single isomer, unassigned) [Compound A50b] | 332 | 13600
CC[C@H]1CN(C(C)c2ccc3ncc(C)nc3c2)[C@H](CC)CN1c1nc(=O)n(C)c2c1nc(CC#N)n2C (single isomer, unassigned) [Compound A51b] | 265 | 22300
CCn1c(=O)nc(N2C[C@@H](C)N(C(C)c3ccc4ncc(C)nc4c3)C[C@@H]2C)c2nc(CC#N)n(C)c21 (single isomer, unassigned) [Compound A53a] | 24 | 60300
CCn1c(=O)nc(N2C[C@@H](C)N(C(C)c3ccc4ncc(C)nc4c3)C[C@@H]2C)c2nc(CC#N)n(C)c21 (single isomer, unassigned) [Compound A53b] | 662 | > 150000
CCn1c(CC#N)nc2c(N3C[C@@H](C)N(C(C)c4ccc5nc(C)sc5c4)C[C@@H]3C)nc(=O)n(C)c21 (single isomer, unassigned) [Compound A56a] | 810 | 108000
CCn1c(CC#N)nc2c(N3C[C@@H](C)N(C(C)c4ccc5nc(C)sc5c4)C[C@@H]3C)nc(=O)n(C)c21 (single isomer, unassigned) [Compound A56b] | 23 | 50900
CC(c1ccc2c(c1)OCCO2)N1C[C@H](C)N(c2nc(=O)n(C)c3c2nc(CC#N)n3C)C[C@H]1C (single isomer, unassigned) [Compound A58a] | 20 | 13300
CC(c1ccc2c(c1)OCCO2)N1C[C@H](C)N(c2nc(=O)n(C)c3c2nc(CC#N)n3C)C[C@H]1C (single isomer, unassigned) [Compound A58b] | 1660 | 90800
CC(c1ccc2c(c1)OC(C)(C)CO2)N1C[C@H](C)N(c2nc(=O)n(C)c3c2nc(CC#N)n3C)C[C@H]1C (single isomer, unassigned) [Compound A59a] | 238 | 40300
CCn1c(CC#N)nc2c(N3C[C@@H](C)N(C(C)c4ccc5c(c4)OC(C)(C)CO5)C[C@@H]3C)nc(=O)n(C)c21 (single isomer, unassigned) [Compound A60b] | 206 | > 150000
CCn1c(=O)nc(N2C[C@@H](C)N(C(C)c3ccc4c(c3)OC(C)(C)CO4)C[C@@H]2C)c2nc(CC#N)n(C)c21 (single isomer, unassigned) [Compound A61b] | 420 | 37900
CC[C@@H]1CN(c2nc(=O)n(C)c3c2nc(CC#N)n3C)[C@@H](C)CN1C(C)c1ccc2c(c1)OC(C)(C)CO2 (single isomer, unassigned) [Compound A63b] | 22 | 7400
CC[C@H]1CN(C(C)c2ccc3c(c2)OC(C)(C)CO3)[C@H](CC)CN1c1nc(=O)n(C)c2c1nc(CC#N)n2C (single isomer, unassigned) [Compound A64b] | 14 | 4750
CC[C@@H]1CN(c2nc(=O)n(CC)c3c2nc(CC#N)n3C)[C@@H](C)CN1C(C)c1ccc2c(c1)OC(C)(C)CO2 (single isomer, unassigned) [Compound A66a] | 217 | 15800
CC(c1cc(F)c2c(c1)OC(C)(C)CO2)N1C[C@H](C)N(c2nc(=O)n(C)c3c2nc(CC#N)n3C)C[C@H]1C (single isomer, unassigned) [Compound A68b] | 199 | 72800
CC(c1cc2c(cc1F)OCC(C)(C)O2)N1C[C@H](C)N(c2nc(=O)n(C)c3c2nc(CC#N)n3C)C[C@H]1C (single isomer, unassigned) [Compound A69b] | 147 | 6090
CCn1c(CC#N)nc2c(N3C[C@@H](C)N(C(C)c4ccc5c(n4)OC(C)(C)CO5)C[C@@H]3C)nc(=O)n(C)c21 (single isomer, unassigned) [Compound A74a] | 46 | > 150000
CCn1c(CC#N)nc2c(N3C[C@@H](C)N(C(C)c4ccc5c(n4)OC(C)(C)CO5)C[C@@H]3C)nc(=O)n(C)c21 (single isomer, unassigned) [Compound A74b] | 4870 | > 150000

Compounds with a lower IC50 [1], results first:

IC50 [1] [nM] | IC50 [2] [nM] | Structure (SMILES)
6 | 77900 | Cc1cnc2ccc(C(C)N3C[C@H](C)N(c4nc(=O)n(C)c5c4nc(CC#N)n5C)C[C@H]3C)cc2n1 (single isomer, unassigned) [Compound A49a]
4 | 24700 | CC[C@@H]1CN(c2nc(=O)n(C)c3c2nc(CC#N)n3C)[C@@H](C)CN1C(C)c1ccc2ncc(C)nc2c1 (single isomer, unassigned) [Compound A50a]
3 | 14000 | CC[C@H]1CN(C(C)c2ccc3ncc(C)nc3c2)[C@H](CC)CN1c1nc(=O)n(C)c2c1nc(CC#N)n2C (single isomer, unassigned) [Compound A51a]
2.3 | 14200 | CC(c1ccc2c(c1)OC(C)(C)CO2)N1C[C@H](C)N(c2nc(=O)n(C)c3c2nc(CC#N)n3C)C[C@H]1C (single isomer, unassigned) [Compound A59b]
3.3 | 72500 | CCn1c(CC#N)nc2c(N3C[C@@H](C)N(C(C)c4ccc5c(c4)OC(C)(C)CO5)C[C@@H]3C)nc(=O)n(C)c21 (single isomer, unassigned) [Compound A60a]
2 | 10100 | CCn1c(=O)nc(N2C[C@@H](C)N(C(C)c3ccc4c(c3)OC(C)(C)CO4)C[C@@H]2C)c2nc(CC#N)n(C)c21 (single isomer, unassigned) [Compound A61a]
2 | 10300 | CC[C@@H]1CN(c2nc(=O)n(C)c3c2nc(CC#N)n3C)[C@@H](C)CN1C(C)c1ccc2c(c1)OC(C)(C)CO2 (single isomer, unassigned) [Compound A63a]
0.88 | 5280 | CC[C@H]1CN(C(C)c2ccc3c(c2)OC(C)(C)CO3)[C@H](CC)CN1c1nc(=O)n(C)c2c1nc(CC#N)n2C (single isomer, unassigned) [Compound A64a]
1 | 6860 | CC[C@@H]1CN(c2nc(=O)n(CC)c3c2nc(CC#N)n3C)[C@@H](C)CN1C(C)c1ccc2c(c1)OC(C)(C)CO2 (single isomer, unassigned) [Compound A66b]
2 | 20300 | CC(c1cc(F)c2c(c1)OC(C)(C)CO2)N1C[C@H](C)N(c2nc(=O)n(C)c3c2nc(CC#N)n3C)C[C@H]1C (single isomer, unassigned) [Compound A68a]
2 | 1190 | CC(c1cc2c(cc1F)OCC(C)(C)O2)N1C[C@H](C)N(c2nc(=O)n(C)c3c2nc(CC#N)n3C)C[C@H]1C (single isomer, unassigned) [Compound A69a]
